Test results published in article PMC7918738, “Microtubule Destabilizing Sulfonamides as an Alternative to Taxane-Based Chemotherapy” (International Journal of Molecular Sciences, 2021).

How the values were obtained:
SKOV3 cells = experiment: Cell cycle analysis in SKOV3 (PI staining, flow cytometry); type: cell-based, human; conditions: 38 600 nM, 42 50 nM, 45 400 nM; for SKOV3 cells at G2/M phase: 24 h
Procedure: The effect of the lead MDS on the cell cycle of MCF7, SKOV3, and HeLa cells was analyzed in time-course experiments at 24, 48, and 72 h post-treatment by DNA staining and flow cytometry quantification. The working concentration for each compound (600 nM for 38, 50 nM for 42, and 400 nM for 45) was established at the complete inhibition of cell proliferation in view of individually assays run in parallel for each cell line.
Cell cycle analysis was performed in MCF7, SKOV-3, and HeLa cells by quantifying the DNA content by flow cytometry. Cells in the exponential growth phase at 2·10^4 cells/mL were seeded in 24-well plates (1 mL/well). After 24 h incubation, cells were treated with different concentrations of the selected compounds and the effect of treated and untreated cells was measured 24, 48, and 72 h post-treatment. Live and dead cells were collected and fixed in ice-cold ethanol/PBS (7:3) and stored at 4 °C for later use. Cells were rehydrated with PBS, treated with 100 µg/mL RNase A (Sigma-Aldrich Co., St. Louis, MO, USA) and stained overnight in darkness at room temperature with 50 µg/mL PI (Sigma-Aldrich Co.). Cell cycle profiles were then analyzed by flow cytometry using BD Accuri™ C6 Plus Flow Cytometer (BD Biosciences, San José, CA, USA). Data were analyzed with BD Accuri™ C6 Software (version 1.0.264.21, BD Biosciences, San José, CA, USA) and compared to control cells. Compounds were dissolved in DMSO and the final solvent concentration never exceeded 0.5% (v/v). Control wells included cells with 0.5% (v/v) DMSO.

[1] = test system: OVCAR-3 ovarian carcinoma cells; experiment: Antiproliferative activity against OVCAR-3 (MTT); type: cell-based; conditions: Homo sapiens, 72 h
Procedure: The in vitro antiproliferative activity of compounds 38, 42, and 45 against a panel of five human ovarian carcinoma cell lines (SKOV3, IGROV-1, A2780, OVCAR-8, and OVCAR-3) was evaluated by a colorimetric method (Table 3) and compared with paclitaxel. […] For SKOV3, the potency reduction observed for paclitaxel together with a sustained or improved (42 with a 7 nM IC50 value) potency for MDS results in a more favorable profile of the MDS compared to paclitaxel.
MCF7 (human breast carcinoma), SKOV-3 (human ovarian carcinoma), OVCAR-3 (human ovarian carcinoma), OVCAR-8 (human ovarian carcinoma), and HeLa (human cervical carcinoma) cell lines were cultured in Dulbecco’s Modified Eagle’s Medium (DMEM) (Gibco, Thermo Fischer Scientific) containing 10% (v/v) heat-inactivated fetal bovine serum (HIFBS) (Lonza-Cambrex, Karlskoga, Sweden), 2 mM L-glutamine (Lonza-Cambrex, Karlskoga, Sweden), 100 μg/mL streptomycin, and 100 IU/mL penicillin (Lonza-Cambrex) at 37 °C in humidified 95% air and 5% CO2. […]
MCF7, HeLa, and HT-29 cell proliferation, when treated with the corresponding compounds, were determined using the XTT (sodium 3’-[1(phenylaminocarbonyl)-3,4-tetrazolium]-bis(4-methoxy-6-nitro)-benzenesulfonic acid hydrate) cell proliferation kit (Roche Molecular Biochemicals, Mannheim, Germany). […] The absorbance of the formazan product generated was measured at 450 nm using a multi-well plate reader. SKOV-3, OVCAR-3, OVCAR-8, IGROV-1, A-2780 cell proliferation, when treated with the corresponding compound, were determined using MTT (3-(4,5-dimethylthiazol-2-yl)-2,5-diphenyl-2H-tetrazolium bromide) (Sigma-Aldrich, St. Louis, MO, USA). […] Absorbance was measured at 570 nm in a plate reader (Ultra Evolution, Tecan, Männedorf, Suiza). […] After 24 h incubation, to allow cells to attach to the plates, all compounds were added at 1 µM concentration and the effect on the proliferation was evaluated 72 h post-treatment. […]

Row | IC50 [1] [nM] | Structure (SMILES) | SKOV3 cells at G2/M phase (SKOV3 cells) [%] | SKOV3 cells at SubG0/G1 (SKOV3 cells; 48 h) [%] | SKOV3 cells at SubG0/G1 (SKOV3 cells; 72 h) [%]
1 | 72 | COc1ccc(S(=O)(=O)N(C)c2cc(OC)c(OC)c(OC)c2)cc1N [Compound 42] | 44 | 34 | 53
2 | 31 | CNc1ccc(S(=O)(=O)N(C)c2cc(OC)c(OC)c(OC)c2)cc1 [Compound 38] | 44 | 35 | 43
3 | 58 | COc1ccc(S(=O)(=O)N(Cc2ccccc2)c2cc(OC)c(OC)c(OC)c2)cc1N [Compound 45] | 44 | 46 | 63
